Data: ChEMBL document CHEMBL1201862, “PubChem BioAssay data set” (2004)
The source made the active and inactive calls. For most assays here, no stated cut-off is given here; in the data, actives have a measured EC50 and inactives only a lower limit.

Tests used:
[1] = tested on: H9c2; assay: cells; type: functional, cell-based; settings: Rattus norvegicus, H9c2, Myocardium;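 further: confirmatory concentration-response retest of ultra-high-throughput screening hits for modulation of myocardial damage; cell death induced by hydrogen peroxide oxidative stress; compound pretreatment for 60 min then peroxide exposure for 2 h; potency is for protecting the cells against peroxide damage rather than for killing them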
[2] = THP-1 cell cytotoxicity, cytotoxicity control, set 4 (AID 504911); type: functional; settings: Mycobacterium tuberculosis
[3] = CRF-BP/CRF-R2 complex antagonists, dose response, cell-based, uHTS hits, 384-well (AID 651639); type: functional, Homo sapiens; settings: read-out: IC50_Mean
[4] = tested on: BJ; assay: cytotoxicity toward Ras-transformed BJeLR fibroblasts, dose response, cell-based, alamar blue fluorescence, cherrypicked samples (AID 2631); type: functional; settings: Homo sapiens;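 further: confirmatory dose-response assay in RAS-dependent BJ fibroblasts engineered with TERT, LT and ST, with cytotoxicity read by fluorescence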
[5] = NIH-3T3 fibroblast cytotoxicity, dose response, cytotoxicity control, cell-based, fluorescence, Alamar Blue, secondary assay (AID 2327); type: functional;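 further: NIH-3T3 mouse fibroblasts cultured with fluconazole at 8 µg/mL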
[6] = target: T1, Streptokinase A (Streptococcus pyogenes serotype M1, UniProt P10520); assay: S. pyogenes streptokinase expression inhibitors, potency, dose response, plasminogen activation absorbance, OD405 (AID 1914); type: functional, Streptococcus pyogenes M1 GAS;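 further: secreted streptokinase activity via plasminogen activation per viability signal from cell pellet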
T1 sequence (P10520 whole entry): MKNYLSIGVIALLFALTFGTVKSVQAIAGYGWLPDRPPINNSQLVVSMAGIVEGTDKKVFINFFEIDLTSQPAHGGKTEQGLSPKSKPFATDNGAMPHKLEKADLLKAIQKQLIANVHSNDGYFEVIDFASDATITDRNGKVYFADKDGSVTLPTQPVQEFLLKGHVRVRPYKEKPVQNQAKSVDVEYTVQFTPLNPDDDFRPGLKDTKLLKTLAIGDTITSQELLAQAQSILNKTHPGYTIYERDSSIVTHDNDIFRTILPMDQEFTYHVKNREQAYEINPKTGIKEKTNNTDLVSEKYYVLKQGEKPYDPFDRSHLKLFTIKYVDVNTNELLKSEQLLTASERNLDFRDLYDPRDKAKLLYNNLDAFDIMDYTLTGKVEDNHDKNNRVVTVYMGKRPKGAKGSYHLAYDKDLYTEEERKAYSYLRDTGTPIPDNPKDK

[7] = tested on: Streptococcus; assay: Group A Streptococcus viability loss, dose response, counter-screen for streptokinase expression inhibitor project, luminescence, BacTiterGlo (AID 1915); type: functional, organism-based;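 further: potency for reduction of bacterial viability or growth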
[8] = tested on: BJ; assay: cytotoxicity toward BJ-TERT-LT-ST fibroblasts, dose response, cell-based, RAS-independent, luminescence (AID 1935); type: functional; settings: Homo sapiens;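 further: BJ fibroblasts immortalized with TERT plus LT and ST oncogenes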
[9] = target: T2, Zinc finger protein mex-5 (Caenorhabditis elegans, UniProt Q9XUB2); assay: MEX-5/TCR-2 RNA interaction inhibitors, dose response, biochemical, C. elegans, fluorescence polarization (AID 1960)
T2 sequence (Q9XUB2 whole entry): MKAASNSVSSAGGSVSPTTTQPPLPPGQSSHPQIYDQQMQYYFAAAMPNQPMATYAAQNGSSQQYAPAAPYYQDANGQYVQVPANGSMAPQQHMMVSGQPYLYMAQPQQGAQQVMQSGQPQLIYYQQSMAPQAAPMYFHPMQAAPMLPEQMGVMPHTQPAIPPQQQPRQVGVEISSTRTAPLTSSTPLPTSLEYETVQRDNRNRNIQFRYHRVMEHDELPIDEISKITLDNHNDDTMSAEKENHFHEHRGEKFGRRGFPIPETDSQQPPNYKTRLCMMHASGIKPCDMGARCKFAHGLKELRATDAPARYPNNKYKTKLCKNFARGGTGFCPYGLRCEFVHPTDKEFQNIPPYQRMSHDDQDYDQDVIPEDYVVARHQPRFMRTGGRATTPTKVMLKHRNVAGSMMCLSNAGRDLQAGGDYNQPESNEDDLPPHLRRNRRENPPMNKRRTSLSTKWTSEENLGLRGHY

[10] = target: T3, RNA-binding protein pos-1 (Caenorhabditis elegans, UniProt G5EF15); assay: inhibitors of POS-1/mex-3 RNA binding, dose response, biochemical, fluorescence polarization (AID 1964);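 further: purified POS-1 fused to maltose binding protein made in E. coli; potency of compounds blocking POS-1 binding to fluorescent RNA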
T3 sequence (G5EF15 whole entry): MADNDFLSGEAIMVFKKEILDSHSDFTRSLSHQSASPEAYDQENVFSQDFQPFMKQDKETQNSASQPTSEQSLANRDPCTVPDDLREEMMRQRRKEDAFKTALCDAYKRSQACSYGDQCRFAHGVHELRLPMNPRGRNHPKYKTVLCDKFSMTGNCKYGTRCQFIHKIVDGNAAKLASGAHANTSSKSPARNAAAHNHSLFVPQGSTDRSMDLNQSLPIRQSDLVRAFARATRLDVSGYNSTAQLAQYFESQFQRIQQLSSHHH

[11] = tested on: Streptococcus sp. 'group A'; assay: growth inhibition of control SK(-) GAS strain, dose response, counter-screen for streptokinase expression inhibitor project, luminescence, kanamycin, BacTiterGlo, confirmation (AID 1900); type: functional, organism-based
[12] = cytotoxicity toward DRD oncogenic fibroblasts, dose response, cell-based, non-viral oncogenic, luminescence (AID 1934); type: functional; settings: Homo sapiens
[13] = target: Photoreceptor-specific nuclear receptor (Homo sapiens, UniProt Q9Y5X4); type: functional, cell-based;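 further: CHO-S cells with Gal4-NCOR and VP16-NR2E3 two-hybrid luciferase reporter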
Chain of Photoreceptor-specific nuclear receptor (Q9Y5X4 whole entry, the tested form may be a part): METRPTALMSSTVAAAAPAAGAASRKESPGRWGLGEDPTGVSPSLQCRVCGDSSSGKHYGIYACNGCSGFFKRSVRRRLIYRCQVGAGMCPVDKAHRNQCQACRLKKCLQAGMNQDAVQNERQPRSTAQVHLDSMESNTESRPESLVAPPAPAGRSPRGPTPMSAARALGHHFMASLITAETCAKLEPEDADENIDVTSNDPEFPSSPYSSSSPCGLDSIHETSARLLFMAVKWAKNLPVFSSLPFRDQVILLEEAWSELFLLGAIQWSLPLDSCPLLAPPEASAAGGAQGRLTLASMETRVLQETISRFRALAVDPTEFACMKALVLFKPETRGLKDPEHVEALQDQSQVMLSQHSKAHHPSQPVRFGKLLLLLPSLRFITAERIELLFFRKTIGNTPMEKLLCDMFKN

[14] = tested on: BJ; assay: cytotoxicity toward BJ-TERT fibroblasts, dose response, cell-based, RAS-independent, luminescence (AID 1933); type: functional; settings: Homo sapiens
[15] = tested on: Vero; assay: cells; type: functional; settings: Chlorocebus sabaeus
[16] = tested on: BJ; assay: cells; type: functional, cell-based; settings: Homo sapiens
[17] = C. albicans growth with fluconazole, confirmation, fluorescence, retest (AID 2467); type: functional, cell-based

O=C(CSc1nc(O)c2ccccc2n1)N1CCOCC1
IC50 [1]: 25.9 µM (active) | CC50 [2]: > 100 µM (active)

CN(C(=O)COC(=O)CCc1nc(O)c2ccccc2n1)C1CCS(=O)(=O)C1 (configuration not stated)
IC50 [3]: > 20 µM (inactive)

O=C(/C=C/c1ccc([N+](=O)[O-])o1)NNC(=O)c1ccc(F)cc1
EC50 [4]: 2.93 µM (active) | EC50 [5]: 4.1 µM (inconclusive) | EC50 [6]: 13.9 µM (active) | EC50 [7]: 10.3 µM (active) | EC50 [8]: > 150 µM (inconclusive) | EC50 [9]: 24.8 µM (active) | EC50 [10]: > 300 µM (not active) | EC50 [11]: 2.58 µM (active) | EC50 [12]: 7.26 µM (active) | IC50 [13]: 1.8 µM (active) | EC50 [14]: 7.04 µM (inconclusive) | CC50 [15]: 14.5 µM (active) | EC50 [16]: 4.1 µM (inconclusive) | EC50 [17]: 1.24 µM (active)
